Source: PMC12282092, “Discovery of a non-nucleoside inhibitor that binds to a novel site in the palm domain of the respiratory syncytial virus RNA-dependent RNA polymerase” (Journal of Virology, 2025)

Key:
[1] = biological target: T1, RSV L+P (Human respiratory syncytial virus A, UniProt P28887); assay: Pyrophosphate luminescence detection assay, full-length RSV L+P; assay type: biochemical; conditions: for IC50: read-out: Biochemical IC50; for Emax: read-out: Biochemical Emax
T1 construct: Biochemical activity of 1 and 22 against full-length RSV L+P; Twin-Strep-tag (N); made in house; host or cells: Sf9 insect cells (baculovirus, pFastBac Dual)
T1 sequence (P03421 whole entry): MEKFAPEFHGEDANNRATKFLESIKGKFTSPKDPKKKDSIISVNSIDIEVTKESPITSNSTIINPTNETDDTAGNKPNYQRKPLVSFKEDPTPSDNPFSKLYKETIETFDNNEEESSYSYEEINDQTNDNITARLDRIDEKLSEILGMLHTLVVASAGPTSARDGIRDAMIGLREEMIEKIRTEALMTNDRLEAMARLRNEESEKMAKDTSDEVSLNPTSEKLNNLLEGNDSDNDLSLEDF
T1 sequence (P28887 whole entry): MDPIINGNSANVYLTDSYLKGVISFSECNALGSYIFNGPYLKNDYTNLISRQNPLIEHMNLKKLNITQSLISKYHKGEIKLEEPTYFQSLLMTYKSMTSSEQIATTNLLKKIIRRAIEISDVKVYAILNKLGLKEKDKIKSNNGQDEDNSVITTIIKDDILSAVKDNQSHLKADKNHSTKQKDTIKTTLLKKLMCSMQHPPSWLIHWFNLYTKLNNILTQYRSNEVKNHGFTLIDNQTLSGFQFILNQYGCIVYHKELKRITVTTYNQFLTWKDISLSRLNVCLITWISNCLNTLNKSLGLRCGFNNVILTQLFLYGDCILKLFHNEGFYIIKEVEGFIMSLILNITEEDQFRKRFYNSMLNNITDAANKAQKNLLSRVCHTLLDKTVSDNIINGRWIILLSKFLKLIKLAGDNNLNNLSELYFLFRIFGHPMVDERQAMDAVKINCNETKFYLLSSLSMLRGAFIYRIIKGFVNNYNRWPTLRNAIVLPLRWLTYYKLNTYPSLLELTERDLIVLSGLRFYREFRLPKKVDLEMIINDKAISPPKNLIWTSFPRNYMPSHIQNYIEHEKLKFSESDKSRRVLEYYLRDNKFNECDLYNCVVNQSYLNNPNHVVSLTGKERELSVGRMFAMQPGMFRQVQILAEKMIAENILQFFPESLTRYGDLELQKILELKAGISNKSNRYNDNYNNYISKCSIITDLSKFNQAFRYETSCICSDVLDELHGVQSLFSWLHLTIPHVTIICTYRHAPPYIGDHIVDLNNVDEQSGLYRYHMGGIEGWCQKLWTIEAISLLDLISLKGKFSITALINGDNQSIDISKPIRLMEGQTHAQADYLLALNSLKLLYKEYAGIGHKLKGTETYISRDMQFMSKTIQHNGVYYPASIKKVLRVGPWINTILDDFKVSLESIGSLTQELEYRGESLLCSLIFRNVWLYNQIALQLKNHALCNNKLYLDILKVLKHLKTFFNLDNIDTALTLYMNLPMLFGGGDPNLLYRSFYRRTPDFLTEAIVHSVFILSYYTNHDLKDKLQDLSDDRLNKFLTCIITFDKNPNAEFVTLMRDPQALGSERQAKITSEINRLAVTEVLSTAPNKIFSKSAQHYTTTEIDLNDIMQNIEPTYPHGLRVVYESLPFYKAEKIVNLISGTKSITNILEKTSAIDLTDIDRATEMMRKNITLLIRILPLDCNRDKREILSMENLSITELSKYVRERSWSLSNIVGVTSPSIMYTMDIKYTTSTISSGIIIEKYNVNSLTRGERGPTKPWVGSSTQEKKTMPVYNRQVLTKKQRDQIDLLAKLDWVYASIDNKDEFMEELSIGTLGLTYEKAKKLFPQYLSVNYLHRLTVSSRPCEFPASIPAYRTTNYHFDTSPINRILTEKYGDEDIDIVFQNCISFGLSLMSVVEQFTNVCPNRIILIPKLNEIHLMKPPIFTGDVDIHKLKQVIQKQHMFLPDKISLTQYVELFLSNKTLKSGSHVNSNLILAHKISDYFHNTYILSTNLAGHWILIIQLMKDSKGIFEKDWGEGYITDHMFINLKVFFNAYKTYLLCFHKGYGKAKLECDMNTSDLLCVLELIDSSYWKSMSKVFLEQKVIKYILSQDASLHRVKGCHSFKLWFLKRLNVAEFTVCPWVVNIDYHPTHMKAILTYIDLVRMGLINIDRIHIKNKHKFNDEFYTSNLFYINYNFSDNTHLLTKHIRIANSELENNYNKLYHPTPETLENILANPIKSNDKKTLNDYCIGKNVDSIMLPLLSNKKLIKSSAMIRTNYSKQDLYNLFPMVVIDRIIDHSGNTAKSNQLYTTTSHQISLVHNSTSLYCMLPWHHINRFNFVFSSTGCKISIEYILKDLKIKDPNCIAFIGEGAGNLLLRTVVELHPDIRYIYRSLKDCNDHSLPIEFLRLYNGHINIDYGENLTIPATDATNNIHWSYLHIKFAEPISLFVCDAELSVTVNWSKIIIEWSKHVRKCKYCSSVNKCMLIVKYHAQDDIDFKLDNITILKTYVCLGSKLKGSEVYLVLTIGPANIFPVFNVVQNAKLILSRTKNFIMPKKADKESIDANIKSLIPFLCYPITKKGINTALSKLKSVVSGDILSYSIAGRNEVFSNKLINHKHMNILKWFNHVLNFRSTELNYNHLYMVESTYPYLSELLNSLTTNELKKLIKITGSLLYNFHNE
Description: Working solutions (3×) of RSV L+P (60 nM), substrate (30 µM each of GTP, CTP, UTP, 300 µM ATPαS [Jena Bioscience], 15 µM RNA template TrC-25), detection reagents (6 nM Luciferase, 900 µM luciferin, 3 U/µL ATP Sulfurylase [BioVision], 15 µM adenosine phosphosulfate [APS], 3 mM coenzyme A), were prepared in complete assay buffer. Compounds were dissolved in dimethyl sulfoxide (DMSO) and dispensed to white, 1536-well cyclic olefin copolymer (COC) plates (Corning, 9145BC) using an Echo Acoustic Liquid Handler (Beckman Coulter, San Jose, CA). Substrate (1 µL) and detection reagents (1 µL) were dispensed using a Multidrop Combi Dispenser (ThermoFisher, Waltham, MA), followed by enzyme (1 µL) to initiate the reaction. Final screening concentrations were 20 nM RSV L+P, 10 µM GTP/CTP/UTP, 100 µM ATPαS, 5 µM TrC-25, 2 nM Luciferase (Promega), 300 µM luciferin (Promega), 1 U/µL ATP sulfurylase, 5 µM APS, and 1 mM CoA. […] Luminescence was detected using the PHERAStar FSX (BMG Labtech, Ortenberg, Germany).

[2] = system: rgRSV224 virus (RSV A2) in HeLa cells; assay: HeLa cell rgRSV224 eGFP reporter viral proliferation assay; assay type: cell-based; conditions: human respiratory syncytial virus, RSV eGFP phenotypic assay in HeLa cells; for EC50: HeLa, 72 h, MOI 1, 72 h, n ≥ 2, read-out: Cellular EC50; for Emax: read-out: Cellular Emax
Description: (§1) Compound serial dilutions (9 point, fourfold) were prepared in DMSO, and 200 nL was transferred to black, 384-well, clear-bottom microtiter plates (Corning, Amsterdam, The Netherlands) via acoustic drop ejection ([36], [50]). […] Then, 20 µL of a HeLa cell suspension (3,000 cells/well) was added with a Multidrop Combi, and cells were incubated at 37°C in a 5% CO2 atmosphere. After 72 h, GFP expression was quantified using an EnVision Multimode Plate Reader (Perkin Elmer, Zaventem, Belgium), and data were normalized to untreated and media-only (no virus) controls. Cytotoxicity was determined in parallel using the ATPlite kit (Perkin Elmer, Zaventem, Belgium). Luminescence was measured in white, 384-well microtiter plates (Corning) on a ViewLux uHTS Microplate Imager apparatus (PerkinElmer, Zaventem, Belgium), and cellular ATP content was quantified by normalizing to untreated and media-only (no cell) controls. […] Figures were prepared with GraphPad Prism.

[3] = in vitro; conditions: human; for CC50 at 72 h: HeLa cells
Description: as §1

[4] = system: HeLa cells; assay: HeLa cytotoxicity assay (ATPlite); conditions: HeLa cells
Description: as §1

[5] = Metabolic stability in liver microsomes; conditions: in vitro intrinsic clearance in human liver microsomes, n = 1
[6] = biological target: Full-length RSV P (1-241) protein (human RSV); assay: cryo-EM structure; full-length RSV L+P complex with compound 22; 0.8 mg/mL on grids; global resolution 2.72 Å
[7] = biological target: coupled enzyme system (ATP sulfurylase, luciferase); assay: Pyrophosphate detection counterscreen; assay type: biochemical; conditions: read-out: PPi counterscreen IC50
Description: To determine if compounds were interfering with the sulfurylase or luciferase in the pyrophosphate luminescence detection assay, a counterscreen was developed to monitor activity of the coupling system. Working solutions (3×) of substrate and detection reagents were prepared as before and added to 1536-well white, COC plates containing compound titrations. Then, 1 µL of a 3× solution of 4.5 µM sodium pyrophosphate (Sigma, P8010) was dispensed with the Multidrop Combi to initiate the reaction. […] Luminescence was detected using the PHERAStar FSX. […] Figures were prepared with GraphPad Prism.

[8] = biological target: human mitochondrial RNA polymerase (POLRMT) (Homo sapiens, UniProt O00411); assay: POLRMT assay
human mitochondrial RNA polymerase (POLRMT), sequence (O00411 103-1230): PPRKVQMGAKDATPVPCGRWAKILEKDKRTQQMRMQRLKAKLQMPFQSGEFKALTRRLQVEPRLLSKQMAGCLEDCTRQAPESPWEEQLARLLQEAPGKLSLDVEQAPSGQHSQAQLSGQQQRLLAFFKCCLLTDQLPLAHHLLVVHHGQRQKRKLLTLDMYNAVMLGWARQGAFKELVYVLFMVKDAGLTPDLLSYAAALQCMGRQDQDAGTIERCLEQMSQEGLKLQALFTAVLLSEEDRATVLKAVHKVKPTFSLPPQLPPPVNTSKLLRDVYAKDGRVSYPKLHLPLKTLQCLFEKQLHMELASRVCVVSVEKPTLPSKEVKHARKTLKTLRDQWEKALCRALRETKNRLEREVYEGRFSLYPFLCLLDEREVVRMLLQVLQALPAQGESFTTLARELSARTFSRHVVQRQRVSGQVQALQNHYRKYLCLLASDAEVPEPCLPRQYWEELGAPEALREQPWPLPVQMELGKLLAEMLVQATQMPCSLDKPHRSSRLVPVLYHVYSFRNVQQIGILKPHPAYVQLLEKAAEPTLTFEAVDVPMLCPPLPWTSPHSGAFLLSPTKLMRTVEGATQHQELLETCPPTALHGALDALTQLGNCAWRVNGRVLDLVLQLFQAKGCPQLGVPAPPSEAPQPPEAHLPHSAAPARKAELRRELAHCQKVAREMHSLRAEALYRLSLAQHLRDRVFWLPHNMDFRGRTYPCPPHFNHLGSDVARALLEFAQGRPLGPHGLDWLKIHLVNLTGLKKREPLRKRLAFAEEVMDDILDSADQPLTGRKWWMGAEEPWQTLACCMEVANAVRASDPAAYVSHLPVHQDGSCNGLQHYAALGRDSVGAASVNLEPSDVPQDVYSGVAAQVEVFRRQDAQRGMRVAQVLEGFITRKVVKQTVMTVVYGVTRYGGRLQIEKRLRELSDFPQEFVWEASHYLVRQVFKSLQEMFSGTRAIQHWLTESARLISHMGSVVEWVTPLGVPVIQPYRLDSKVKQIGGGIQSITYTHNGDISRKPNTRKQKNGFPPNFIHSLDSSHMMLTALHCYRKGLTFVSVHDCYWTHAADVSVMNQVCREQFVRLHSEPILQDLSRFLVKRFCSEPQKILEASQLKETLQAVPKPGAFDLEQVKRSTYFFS

[9] = pyrophosphate luminescence detection assay, full-length RSV L+P, n ≥ 2
[10] = pyrophosphate luminescence detection assay

Molecule	IC50 [1, 9]	Emax [1, 10]	EC50 [2]	Emax [2]	CC50 [3]	Cytotoxicity Emax [4]	HLM CLint [5]	CC50 at 72 h [3]	stoichiometry N [6]	Biochemical IC50 [1, 9]	IC50 [7]	IC50 [8]	POLRMT IC50 ([8]; 8 nM POLRMT)	loss in potency on replacing the bromo substituent with a proton ([1]; compared to 1)
CN1C(=O)C2(CCN(c3ccc(C#N)c(Cl)c3)CC2)c2cc(F)ccc21 [Compound 30]	1250 nM	100%	4.35 µM	95.8%	> 6.65 µM	58.0%	39.1 µL/min/mg microsomal protein							
N#Cc1ncc(N2CCC3(CC2)C(=O)Nc2ccc(Cl)cc23)cc1Cl [Compound 16, 3-chloro-5-(5-chloro-2-oxospiro[indoline-3,4'-piperidin]-1'-yl)picolinonitrile]	1030 nM	108%	8.07 µM	94.2%		45.3%	<7.7 µL/min/mg microsomal protein	> 13 µM						
Full-length RSV P (1-241) protein (natural protein)									4					
Cc1cc(N2CCC3(CC2)C(=O)N(C)c2ccc(F)cc23)cc(F)c1C#N [Compound 32, 2-fluoro-4-(5-fluoro-1-methyl-2-oxospiro[indoline-3,4'-piperidin]-1'-yl)-6-methylbenzonitrile]	1900 nM	91.2%	13.8 µM	92.6%		50.9%	64.8 µL/min/mg microsomal protein	> 5.78 µM						
CN1C(=O)C2(CCN(c3cnc(N4CCOCC4)c(Cl)c3)CC2)c2cc(F)ccc21 [Compound 34, 1'-(5-chloro-6-morpholinopyridin-3-yl)-5-fluoro-1-methylspiro[indoline-3,4'-piperidin]-2-one]	> 30200 nM	69.5%	30.3 µM	49.6%		41.6%	126 µL/min/mg microsomal protein	> 50 µM		inactive				
CN1C(=O)C2(CCN(c3cnc(C#N)c(Cl)c3)CC2)c2cc(F)ccc21 [Compound 23, 3-chloro-5-(5-fluoro-1-methyl-2-oxospiro[indoline-3,4'-piperidin]-1'-yl)picolinonitrile]		103%	3.67 µM	93.3%		55.7%	19 µL/min/mg microsomal protein	> 3.74 µM						
N#Cc1ncc(N2CCC3(CC2)C(=O)Nc2ccc(Br)cc23)cc1Cl [Compound 1, 5-(5-bromo-2-oxospiro[indoline-3,4'-piperidin]-1'-yl)-3-chloropicolinonitrile]		110%	6.68 µM	94.6%		63.1%	<7.7 µL/min/mg microsomal protein	> 3.8 µM			> 100 µM	> 100 µM	no activity	
N#Cc1ncc(N2CCC3(CC2)C(=O)N(c2cccnc2)c2ccc(F)cc23)cc1Cl [Compound 21, 3-chloro-5-(5-fluoro-2-oxo-1-(pyridin-3-yl)spiro[indoline-3,4'-piperidin]-1'-yl)picolinonitrile]	800 nM	107%	3.38 µM	95.8%		44.8%		> 2.71 µM						
COc1ccc2c(c1)C1(CCN(c3cnc(C#N)c(Cl)c3)CC1)C(=O)N2 [Compound 18, 3-chloro-5-(5-methoxy-2-oxospiro[indoline-3,4'-piperidin]-1'-yl)picolinonitrile]	3100 nM	100%	15.9 µM	96.8%		82.4%		24.4 µM						
N#Cc1ncc(N2CCC3(CC2)C(=O)Nc2ccc(F)cc23)cc1Cl [Compound 19, 3-chloro-5-(5-fluoro-2-oxospiro[indoline-3,4'-piperidin]-1'-yl)picolinonitrile]	2700 nM	106%	6.54 µM	99.9%		52.2%	19 µL/min/mg microsomal protein	> 50 µM						
Cc1ccc2c(c1)C1(CCN(c3cnc(C#N)c(Cl)c3)CC1)C(=O)N2 [Compound 17, 3-chloro-5-(5-methyl-2-oxospiro[indoline-3,4'-piperidin]-1'-yl)picolinonitrile]	1750 nM	111%	10.9 µM	55.1%		8.6%	123 µL/min/mg microsomal protein	> 50 µM						
COc1cc(N2CCC3(CC2)C(=O)N(C)c2ccc(F)cc23)cnc1C#N [Compound 31, 5-(5-fluoro-1-methyl-2-oxospiro[indoline-3,4'-piperidin]-1'-yl)-3-methoxypicolinonitrile]	2980 nM	115%	8.78 µM	98.6%		37.6%	20.5 µL/min/mg microsomal protein	> 22.7 µM						
N#Cc1ncc(N2CCC3(CC2)C(=O)N(CCF)c2ccc(F)cc23)cc1Cl [Compound 25, 3-chloro-5-(5-fluoro-1-(2-fluoroethyl)-2-oxospiro[indoline-3,4'-piperidin]-1'-yl)picolinonitrile]	2860 nM	90.7%	8.86 µM	80.3%		66.5%	14.1 µL/min/mg microsomal protein	> 23.4 µM						
N#Cc1ncc(N2CCC3(CC2)C(=O)N(CC2CC2)c2ccc(F)cc23)cc1Cl [Compound 24, 3-chloro-5-(1-(cyclopropylmethyl)-5-fluoro-2-oxospiro[indoline-3,4'-piperidin]-1'-yl)picolinonitrile]		89.4%	8.61 µM	78.3%		51.8%	46.3 µL/min/mg microsomal protein	> 7.77 µM						
CN1C(=O)C2(CCN(c3ccc(C#N)c(Cl)n3)CC2)c2cc(F)ccc21 [Compound 29, 2-chloro-6-(5-fluoro-1-methyl-2-oxospiro[indoline-3,4'-piperidin]-1'-yl)nicotinonitrile]	1560 nM	95.5%	7.89 µM	94.3%		66.9%	31.9 µL/min/mg microsomal protein	> 8.43 µM						
N#Cc1ncc(N2CCC3(CC2)C(=O)Nc2ccccc23)cc1Cl [Compound 20, 3-chloro-5-(2-oxospiro[indoline-3,4'-piperidin]-1'-yl)picolinonitrile]	6630 nM	84.7%	8.34 µM	81.4%		42.9%	19.7 µL/min/mg microsomal protein	> 3.8 µM						10 fold
